From patent US10464922B2, “Metalloenzyme inhibitor compounds” (NQP 1598 LTD., priority 2015, dated 2019)
Converted amounts (≈) assume the structure as drawn.

Key:
C. albicans (ATCC 90028) = experiment: Minimum inhibitory concentration, in vitro broth microdilution assay (CLSI M27-A2); type: cell-based, Candida albicans; details: Candida albicans, ATCC90028, 48 h, ATCC 90028; about 50% growth reduction; 2 days at 36° C.; range tested 8-0.0078 μg/mL; values given as ranges; read-out: Candida albicans MIC
Summary of the method: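 Inoculum of 1×10^3 to 1×10^4 CFU/mL in RPMI-1640+MOPS, exposed to 11 two-fold serial compound concentrations at 2 percent final DMSO, per CLSI M27-A2. After 2 days at 36° C, wells scored visually for growth to give MIC; tested in duplicate.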

A. fumigatus = A. fumigatus MIC at 100% growth inhibition (CLSI M38-A2); type: cell-based, Aspergillus fumigatus; details: Aspergillus fumigatus, 100% growth inhibition; range tested 8-0.0078 μg/mL; values given as ranges; read-out: Aspergillus fumigatus MIC
Method: A. fumigatus MICs were determined at 100% growth inhibition following CLSI guidelines at a concentration range of 8-0.0078 μg/mL (CLSI M38-A2).

Compound | MIC (C. albicans (ATCC 90028)) | MIC (A. fumigatus)
CC(C)(C)C(O)c1ccc(N2CCN(c3ccc(-c4ccc(C(F)(F)[C@](O)(Cn5cnnn5)c5ccc(F)cc5F)nc4)cc3)CC2)cn1 (stereo partly drawn) [Example 50, 1-(5-(4-(4-(6-((R)-2-(2,4-difluorophenyl)-1,1-difluoro-2-hydroxy-3-(1H-tetrazol-1-yl)propyl)pyridin-3-yl)phenyl)piperazin-1-yl)pyridin-2-yl)-2,2-dimethylpropan-1-ol] | 0.01 to 0.1 µg/mL (≈ 0.0148 to 0.148 µM) | 0.25 to 1 µg/mL (≈ 0.369 to 1.48 µM)
Cn1ncn(-c2ccc(N3CCN(c4ccc(-c5ccc(C(F)(F)[C@](O)(Cn6cnnn6)c6ccc(F)cc6F)nc5)cc4)CC3)cc2)c1=O [Example 53, (R)-4-(4-(4-(4-(6-(2-(2,4-difluorophenyl)-1,1-difluoro-2-hydroxy-3-(1H-tetrazol-1-yl)propyl)pyridin-3-yl)phenyl)piperazin-1-yl)phenyl)-2-methyl-2,4-dihydro-3H-1,2,4-triazol-3-one] | 0.01 to 0.1 µg/mL (≈ 0.0146 to 0.146 µM) | 0.062 to 0.25 µg/mL (≈ 0.0903 to 0.364 µM)
CCn1ncn(-c2ccc(N3CCN(c4ccc(-c5ccc(C(F)(F)[C@](O)(Cn6cnnn6)c6ccc(F)cc6F)nc5)cc4)CC3)cc2)c1=O [Example 54, (R)-4-(4-(4-(4-(6-(2-(2,4-difluorophenyl)-1,1-difluoro-2-hydroxy-3-(1H-tetrazol-1-yl)propyl)pyridin-3-yl)phenyl)piperazin-1-yl)phenyl)-2-ethyl-2,4-dihydro-3H-1,2,4-triazol-3-one] | 0.01 to 0.1 µg/mL (≈ 0.0143 to 0.143 µM) | 0.062 to 0.25 µg/mL (≈ 0.0885 to 0.357 µM)
CCC(C)n1ncn(-c2ccc(N3CCN(c4ccc(-c5ccc(C(F)(F)[C@](O)(Cn6cnnn6)c6ccc(F)cc6F)nc5)cc4)CC3)cc2)c1=O (stereo partly drawn) [Example 55, 2-(sec-butyl)-4-(4-(4-(4-(6-((R)-2-(2,4-difluorophenyl)-1,1-difluoro-2-hydroxy-3-(1H-tetrazol-1-yl)propyl)pyridin-3-yl)phenyl)piperazin-1-yl)phenyl)-2,4-dihydro-3H-1,2,4-triazol-3-one] | 0.01 to 0.1 µg/mL (≈ 0.0137 to 0.137 µM) | 0.062 to 0.25 µg/mL (≈ 0.0851 to 0.343 µM)
CC(O)c1ccc(N2CCN(c3ccc(-c4ccc(C(F)(F)[C@](O)(Cn5cnnn5)c5ccc(F)cc5F)nc4)cc3)CC2)cc1 (stereo partly drawn) [Example 56, (2R)-2-(2,4-difluorophenyl)-1,1-difluoro-1-(5-(4-(4-(4-(1-hydroxyethyl)phenyl)piperazin-1-yl)phenyl)pyridin-2-yl)-3-(1H-tetrazol-1-yl) propan-2-ol] | 0.01 to 0.1 µg/mL (≈ 0.0158 to 0.158 µM) | 0.25 to 1 µg/mL (≈ 0.395 to 1.58 µM)
CC[C@H](NC(=O)c1ccc(N2CCN(c3ccc(-c4ccc(C(F)(F)[C@](O)(Cn5cnnn5)c5ccc(F)cc5F)nc4)cc3)CC2)cc1)[C@H](C)O [Example 57, 4-(4-(4-(6-((R)-2-(2,4-difluorophenyl)-1,1-difluoro-2-hydroxy-3-(1H-tetrazol-1-yl)propyl)pyridin-3-yl)phenyl)piperazin-1-yl)-N-((2S,3S)-2-hydroxypentan-3-yl) benzamide] | 0.01 to 0.1 µg/mL (≈ 0.0139 to 0.139 µM) | 0.25 to 1 µg/mL (≈ 0.348 to 1.39 µM)
CN(C)CCn1ncn(-c2ccc(N3CCN(c4ccc(-c5ccc(C(F)(F)[C@](O)(Cn6cnnn6)c6ccc(F)cc6F)nc5)cc4)CC3)cc2)c1=O [Example 61, (R)-4-(4-(4-(4-(6-(2-(2,4-difluorophenyl)-1,1-difluoro-2-hydroxy-3-(1H-tetrazol-1-yl)propyl)pyridin-3-yl)phenyl)piperazin-1-yl)phenyl)-2-(2-(dimethylamino)ethyl)-2,4-dihydro-3H-1,2,4-triazol-3-one] | 0.01 to 0.1 µg/mL (≈ 0.0134 to 0.134 µM) | 0.25 to 1 µg/mL (≈ 0.336 to 1.34 µM)
CC(C)c1nc2cc(N3CCN(c4ccc(-c5ccc(C(F)(F)[C@](O)(Cn6cnnn6)c6ccc(F)cc6F)nc5)cc4)CC3)ccc2[nH]1 [Example 69, (R)-2-(2,4-difluorophenyl)-1,1-difluoro-1-(5-(4-(4-(2-isopropyl-1H-benzo [d]imidazol-5-yl)piperazin-1-yl)phenyl)pyridin-2-yl)-3-(1H-tetrazol-1-yl) propan-2-ol] | 0.01 to 0.1 µg/mL (≈ 0.0149 to 0.149 µM) | > 8 µg/mL

Further lines, results first:

MIC (C. albicans (ATCC 90028)) | MIC (A. fumigatus) | Compound
0.01 to 0.1 µg/mL (≈ 0.0148 to 0.148 µM) | 0.062 to 0.25 µg/mL (≈ 0.0916 to 0.369 µM) | CC(C)CC(O)c1ccc(N2CCN(c3ccc(-c4ccc(C(F)(F)[C@](O)(Cn5cnnn5)c5ccc(F)cc5F)nc4)cc3)CC2)cn1 (stereo partly drawn) [Example 49, 1-(5-(4-(4-(6-((R)-2-(2,4-difluorophenyl)-1,1-difluoro-2-hydroxy-3-(1H-tetrazol-1-yl)propyl)pyridin-3-yl)phenyl)piperazin-1-yl)pyridin-2-yl)-3-methylbutan-1-ol]
0.0078 to 0.01 µg/mL (≈ 0.0111 to 0.0142 µM) | 1 to 4 µg/mL (≈ 1.42 to 5.68 µM) | OC(CC(F)(F)F)c1ncc(N2CCN(c3ccc(-c4ccc(C(F)(F)[C@](O)(Cn5cnnn5)c5ccc(F)cc5F)nc4)cc3)CC2)cn1 (stereo partly drawn) [Example 51, 1-(5-(4-(4-(6-((R)-2-(2,4-difluorophenyl)-1,1-difluoro-2-hydroxy-3-(1H-tetrazol-1-yl)propyl)pyridin-3-yl)phenyl)piperazin-1-yl)pyrimidin-2-yl)-3,3,3-trifluoropropan-1-ol]
0.0078 to 0.01 µg/mL (≈ 0.0109 to 0.014 µM) | 0.062 to 0.25 µg/mL (≈ 0.0867 to 0.35 µM) | CC(C)n1ncn(-c2ccc(N3CCN(c4ccc(-c5ccc(C(F)(F)[C@](O)(Cn6cnnn6)c6ccc(F)cc6F)nc5)cc4)CC3)cc2)c1=O [Example 52, (R)-4-(4-(4-(4-(6-(2-(2,4-difluorophenyl)-1,1-difluoro-2-hydroxy-3-(1H-tetrazol-1-yl)propyl)pyridin-3-yl)phenyl)piperazin-1-yl)phenyl)-2-isopropyl-2,4-dihydro-3H-1,2,4-triazol-3-one]
0.0078 to 0.01 µg/mL (≈ 0.0103 to 0.0133 µM) | 0.062 to 0.25 µg/mL (≈ 0.0822 to 0.331 µM) | O=c1n(-c2ccc(N3CCN(c4ccc(-c5ccc(C(F)(F)[C@](O)(Cn6cnnn6)c6ccc(F)cc6F)nc5)cc4)CC3)cc2)cnn1CC(F)(F)F [Example 58, (R)-4-(4-(4-(4-(6-(2-(2,4-difluorophenyl)-1,1-difluoro-2-hydroxy-3-(1H-tetrazol-1-yl)propyl)pyridin-3-yl)phenyl)piperazin-1-yl)phenyl)-2-(2,2,2-trifluoroethyl)-2,4-dihydro-3H-1,2,4-triazol-3-one]
0.0078 to 0.01 µg/mL (≈ 0.0115 to 0.0148 µM) | 0.25 to 1 µg/mL (≈ 0.37 to 1.48 µM) | CCC(C)C(O)c1ccc(N2CCN(c3ccc(-c4ccc(C(F)(F)[C@](O)(Cn5cnnn5)c5ccc(F)cc5F)nc4)cc3)CC2)cc1 (stereo partly drawn) [Example 59, 1-(4-(4-(4-(6-((R)-2-(2,4-difluorophenyl)-1,1-difluoro-2-hydroxy-3-(1H-tetrazol-1-yl)propyl)pyridin-3-yl)phenyl)piperazin-1-yl)phenyl)-2-methylbutan-1-ol]
0.0078 to 0.01 µg/mL (≈ 0.0116 to 0.0149 µM) | 0.25 to 1 µg/mL (≈ 0.372 to 1.49 µM) | O=c1[nH]ncn1-c1ccc(N2CCN(c3ccc(-c4ccc(C(F)(F)[C@](O)(Cn5cnnn5)c5ccc(F)cc5F)nc4)cc3)CC2)cc1 [Example 60, (R)-4-(4-(4-(4-(6-(2-(2,4-difluorophenyl)-1,1-difluoro-2-hydroxy-3-(1H-tetrazol-1-yl)propyl)pyridin-3-yl)phenyl)piperazin-1-yl)phenyl)-2,4-dihydro-3H-1,2,4-triazol-3-one]
0.0078 to 0.01 µg/mL (≈ 0.0112 to 0.0144 µM) | 0.25 to 1 µg/mL (≈ 0.36 to 1.44 µM) | OC(c1ccc(N2CCN(c3ccc(-c4ccc(C(F)(F)[C@](O)(Cn5cnnn5)c5ccc(F)cc5F)nc4)cc3)CC2)s1)C(F)(F)F (stereo partly drawn) [Example 62, (2R)-2-(2,4-difluorophenyl)-1,1-difluoro-3-(1H-tetrazol-1-yl)-1-(5-(4-(4-(5-(2,2,2-trifluoro-1-hydroxyethyl)thiophen-2-yl)piperazin-1-yl)phenyl)pyridin-2-yl) propan-2-ol]
0.0078 to 0.01 µg/mL (≈ 0.0115 to 0.0148 µM) | 0.25 to 1 µg/mL (≈ 0.369 to 1.48 µM) | CCC(C)C(O)c1ccc(N2CCN(c3ccc(-c4ccc(C(F)(F)[C@](O)(Cn5cnnn5)c5ccc(F)cc5F)nc4)cc3)CC2)cn1 (stereo partly drawn) [Example 65, 1-(5-(4-(4-(6-((R)-2-(2,4-difluorophenyl)-1,1-difluoro-2-hydroxy-3-(1H-tetrazol-1-yl)propyl)pyridin-3-yl)phenyl)piperazin-1-yl)pyridin-2-yl)-2-methylbutan-1-ol]
0.0078 to 0.01 µg/mL (≈ 0.0105 to 0.0135 µM) | 0.25 to 1 µg/mL (≈ 0.337 to 1.35 µM) | CCC(CC)n1ncn(-c2ccc(N3CCN(c4ccc(-c5ccc(C(F)(F)[C@](O)(Cn6cnnn6)c6ccc(F)cc6F)nc5)cc4)CC3)cc2)c1=O [Example 66, (R)-4-(4-(4-(4-(6-(2-(2,4-difluorophenyl)-1,1-difluoro-2-hydroxy-3-(1H-tetrazol-1-yl)propyl)pyridin-3-yl)phenyl)piperazin-1-yl)phenyl)-2-(pentan-3-yl)-2,4-dihydro-3H-1,2,4-triazol-3-one]
0.0078 to 0.01 µg/mL (≈ 0.0105 to 0.0134 µM) | 0.062 to 0.25 µg/mL (≈ 0.0832 to 0.336 µM) | CC(C)(O)Cn1ncn(-c2ccc(N3CCN(c4ccc(-c5ccc(C(F)(F)[C@](O)(Cn6cnnn6)c6ccc(F)cc6F)nc5)cc4)CC3)cc2)c1=O [Example 67, (R)-4-(4-(4-(4-(6-(2-(2,4-difluorophenyl)-1,1-difluoro-2-hydroxy-3-(1H-tetrazol-1-yl)propyl)pyridin-3-yl)phenyl)piperazin-1-yl)phenyl)-2-(2-hydroxy-2-methylpropyl)-2,4-dihydro-3H-1,2,4-triazol-3-one]
0.0078 to 0.01 µg/mL (≈ 0.0113 to 0.0145 µM) | 0.25 to 1 µg/mL (≈ 0.362 to 1.45 µM) | CC(C)C(C)C(O)c1ccc(N2CCN(c3ccc(-c4ccc(C(F)(F)[C@](O)(Cn5cnnn5)c5ccc(F)cc5F)nc4)cc3)CC2)cn1 (stereo partly drawn) [Example 68, 1-(5-(4-(4-(6-((R)-2-(2,4-difluorophenyl)-1,1-difluoro-2-hydroxy-3-(1H-tetrazol-1-yl)propyl)pyridin-3-yl)phenyl)piperazin-1-yl)pyridin-2-yl)-2,3-dimethylbutan-1-ol]
0.0078 to 0.01 µg/mL (≈ 0.0109 to 0.014 µM) | 0.25 to 1 µg/mL (≈ 0.349 to 1.4 µM) | CCC(c1nc2cc(N3CCN(c4ccc(-c5ccc(C(F)(F)[C@](O)(Cn6cnnn6)c6ccc(F)cc6F)nc5)cc4)CC3)ccc2[nH]1)C(C)O (stereo partly drawn) [Example 71, 3-(5-(4-(4-(6-((R)-2-(2,4-difluorophenyl)-1,1-difluoro-2-hydroxy-3-(1H-tetrazol-1-yl)propyl)pyridin-3-yl)phenyl)piperazin-1-yl)-1H-benzo [d]imidazol-2-yl)pentan-2-ol]
